From patent US9364467B2 (Salix Pharmaceuticals, Ltd, priority 2012, dated 2016)
In brackets after ≈: the same amount, converted by molar mass. Where two headings read alike, the source gives them in different places.

What was measured:
[1] = tested on: Enterobacteriaceae spp. strains; assay: In vitro activity (MIC) against Enterobacteriaceae spp. strains
[2] = tested on: S. epidermidis; assay: In vitro activity (MIC) against S. epidermidis strains

SMILES: CO[C@H]1/C=C/O[C@@]2(C)Oc3c(C)c(O)c4c(O)c(c5c(nc6cc(C)ccn65)c4c3C2=O)NC(=O)/C(C)=C\C=C\[C@H](C)[C@H](O)[C@@H](C)[C@@H](O)[C@@H](C)[C@H](OC(C)=O)[C@@H]1C [Rifaximin, reference compound]
- MIC [1]: 32 µg/mL (≈ 40.7 µM)
- MIC50 [1]: 32 µg/mL (≈ 40.7 µM)
- MIC90 [1]: 32 µg/mL (≈ 40.7 µM)
- MIC ([1]; Citrobacter freundii, C. freundii 57): 16 µg/mL (≈ 20.4 µM)
- MIC ([1]; Citrobacter freundii, C. freundii 58): 32 µg/mL (≈ 40.7 µM)
- MIC ([1]; Citrobacter freundii, C. freundii 65): 32 µg/mL (≈ 40.7 µM)
- MIC ([1]; Citrobacter freundii, C. freundii 68): 32 µg/mL (≈ 40.7 µM)
- MIC ([1]; Citrobacter freundii, C. freundii 69): 32 µg/mL (≈ 40.7 µM)
- MIC ([1]; Citrobacter freundii, C. freundii 1070): 32 µg/mL (≈ 40.7 µM)
- MIC ([1]; Citrobacter freundii, C. freundii 1073): 32 µg/mL (≈ 40.7 µM)
- MIC ([1]; Citrobacter freundii, C. freundii 1075): 32 µg/mL (≈ 40.7 µM)
- MIC ([1]; Enterobacter cloacae, E. cloacae 1): 32 µg/mL (≈ 40.7 µM)
- MIC ([1]; Enterobacter cloacae, E. cloacae 3): 32 µg/mL (≈ 40.7 µM)
- MIC ([1]; Enterobacter cloacae, E. cloacae 8): 32 µg/mL (≈ 40.7 µM)
- MIC ([1]; Enterobacter cloacae, E. cloacae 12): 32 µg/mL (≈ 40.7 µM)
- MIC ([1]; Enterobacter cloacae, E. cloacae 13): 32 µg/mL (≈ 40.7 µM)
- MIC ([1]; Enterobacter cloacae, E. cloacae 14): 32 µg/mL (≈ 40.7 µM)
- MIC ([1]; Enterobacter cloacae, E. cloacae 16): 32 µg/mL (≈ 40.7 µM)
- MIC ([1]; Enterobacter cloacae, E. cloacae 20): 32 µg/mL (≈ 40.7 µM)
- MIC ([1]; Enterobacter cloacae, E. cloacae 321): 32 µg/mL (≈ 40.7 µM)
- MIC ([1]; Enterobacter cloacae, E. cloacae 348): 32 µg/mL (≈ 40.7 µM)
- MIC ([1]; Enterobacter cloacae, E. cloacae 349): 32 µg/mL (≈ 40.7 µM)
- MIC ([1]; Enterobacter cloacae, E. cloacae 358): 32 µg/mL (≈ 40.7 µM)
- MIC ([1]; Enterobacter cloacae, E. cloacae 367): 32 µg/mL (≈ 40.7 µM)
- MIC ([1]; Enterobacter cloacae, E. cloacae 369): 32 µg/mL (≈ 40.7 µM)
- Range (MIC) ([1]; Enterobacteriaceae spp. strains): 8 to 32 µg/mL
- MIC ([1]; Escherichia coli, ATCC E. Coli 25922): 16 µg/mL (≈ 20.4 µM)
- MIC ([1]; Escherichia coli, E. coli 6): 32 µg/mL (≈ 40.7 µM)
- MIC ([1]; Escherichia coli, E. coli 15): 16 µg/mL (≈ 20.4 µM)
- MIC ([1]; Escherichia coli, E. coli 34): 32 µg/mL (≈ 40.7 µM)
- MIC ([1]; Escherichia coli, E. coli 37): 8 µg/mL (≈ 10.2 µM)
- MIC ([1]; Escherichia coli, E. coli 41): 16 µg/mL (≈ 20.4 µM)
- MIC ([1]; Escherichia coli, E. coli 43): 16 µg/mL (≈ 20.4 µM)
- MIC ([1]; Escherichia coli, E. coli 44): 16 µg/mL (≈ 20.4 µM)
- MIC ([1]; Escherichia coli, E. coli 46): 16 µg/mL (≈ 20.4 µM)
- MIC ([1]; Escherichia coli, E. coli 47): 32 µg/mL (≈ 40.7 µM)
- MIC ([1]; Escherichia coli, E. coli 48): 32 µg/mL (≈ 40.7 µM)
- MIC ([1]; Escherichia coli, E. coli 49): 32 µg/mL (≈ 40.7 µM)
- MIC ([1]; Escherichia coli, E. coli 56): 32 µg/mL (≈ 40.7 µM)
- MIC ([1]; Escherichia coli, E. coli 62): 32 µg/mL (≈ 40.7 µM)
- MIC ([1]; Escherichia coli, E. coli 71): 8 µg/mL (≈ 10.2 µM)
- MIC ([1]; Escherichia coli, E. coli 90): 16 µg/mL (≈ 20.4 µM)
- MIC ([1]; Escherichia coli, E. coli 92): 32 µg/mL (≈ 40.7 µM)
- MIC ([1]; Escherichia coli, E. coli 93): 32 µg/mL (≈ 40.7 µM)
- MIC ([1]; Escherichia coli, E. coli 95): 32 µg/mL (≈ 40.7 µM)
- MIC ([1]; Escherichia coli, E. coli 96): 8 µg/mL (≈ 10.2 µM)
- MIC ([1]; Escherichia coli, E. coli 97): 32 µg/mL (≈ 40.7 µM)
- MIC ([1]; Escherichia coli, E. coli 100): 32 µg/mL (≈ 40.7 µM)
- MIC ([1]; Escherichia coli, E. coli 102): 16 µg/mL (≈ 20.4 µM)
- MIC ([1]; Escherichia coli, E. coli 103): 32 µg/mL (≈ 40.7 µM)
- MIC ([1]; Escherichia coli, E. coli 109): 32 µg/mL (≈ 40.7 µM)
- MIC ([1]; Escherichia coli, E. coli 110): 32 µg/mL (≈ 40.7 µM)
- MIC ([1]; Escherichia coli, E. coli 112): 32 µg/mL (≈ 40.7 µM)
- MIC ([1]; Escherichia coli, E. coli 113): 32 µg/mL (≈ 40.7 µM)
- MIC ([1]; Escherichia coli, E. coli 117): 16 µg/mL (≈ 20.4 µM)
- MIC ([1]; Escherichia coli, E. coli 118): 32 µg/mL (≈ 40.7 µM)
- MIC ([1]; Escherichia coli, E. coli 120): 32 µg/mL (≈ 40.7 µM)
- MIC ([1]; Escherichia coli, E. coli 140): 32 µg/mL (≈ 40.7 µM)
- MIC ([1]; Escherichia coli, E. coli 171): 32 µg/mL (≈ 40.7 µM)
- MIC ([1]; Escherichia coli, E. coli 342): 32 µg/mL (≈ 40.7 µM)
- MIC ([1]; Escherichia coli, E. coli 343): 32 µg/mL (≈ 40.7 µM)
- MIC ([1]; Escherichia coli, E. coli 345): 32 µg/mL (≈ 40.7 µM)
- MIC ([1]; Escherichia coli, E. coli 349): 32 µg/mL (≈ 40.7 µM)
- MIC ([1]; Escherichia coli, E. coli 351): 32 µg/mL (≈ 40.7 µM)
- MIC ([1]; Klebsiella aerogenes, E. aerogenes 235): 32 µg/mL (≈ 40.7 µM)
- MIC ([1]; Klebsiella aerogenes, E. aerogenes 281): 32 µg/mL (≈ 40.7 µM)
- MIC ([1]; Klebsiella aerogenes, E. aerogenes 290): 32 µg/mL (≈ 40.7 µM)
- MIC ([1]; Klebsiella aerogenes, E. aerogenes 1023): 32 µg/mL (≈ 40.7 µM)
- MIC ([1]; Klebsiella aerogenes, E. aerogenes 1030): 32 µg/mL (≈ 40.7 µM)
- MIC ([1]; Klebsiella aerogenes, E. aerogenes 1031): 32 µg/mL (≈ 40.7 µM)
- MIC ([1]; Klebsiella oxytoca, K. oxytoca 4): 32 µg/mL (≈ 40.7 µM)
- MIC ([1]; Klebsiella oxytoca, K. oxytoca 18): 32 µg/mL (≈ 40.7 µM)
- MIC ([1]; Klebsiella oxytoca, K. oxytoca 479): 32 µg/mL (≈ 40.7 µM)
- MIC ([1]; Klebsiella oxytoca, K. oxytoca 499): 32 µg/mL (≈ 40.7 µM)
- MIC ([1]; Klebsiella pneumoniae, K. pneumoniae 17): 32 µg/mL (≈ 40.7 µM)
- MIC ([1]; Klebsiella pneumoniae, K. pneumoniae 19): 32 µg/mL (≈ 40.7 µM)
- MIC ([1]; Klebsiella pneumoniae, K. pneumoniae 76): 32 µg/mL (≈ 40.7 µM)
- MIC ([1]; Klebsiella pneumoniae, K. pneumoniae 80): 32 µg/mL (≈ 40.7 µM)
- MIC ([1]; Klebsiella pneumoniae, K. pneumoniae 91): 32 µg/mL (≈ 40.7 µM)
- MIC ([1]; Klebsiella pneumoniae, K. pneumoniae 1064): 32 µg/mL (≈ 40.7 µM)
- MIC ([1]; Morganella morganii, M. morganii 42): 16 µg/mL (≈ 20.4 µM)
- MIC ([1]; Morganella morganii, M. morganii 48): 32 µg/mL (≈ 40.7 µM)
- MIC ([1]; Morganella morganii, M. morganii 50): 32 µg/mL (≈ 40.7 µM)
- MIC ([1]; Morganella morganii, M. morganii 57): 32 µg/mL (≈ 40.7 µM)
- MIC ([1]; Morganella morganii, M. morganii 67): 32 µg/mL (≈ 40.7 µM)
- MIC ([1]; Morganella morganii, M. morganii 101): 32 µg/mL (≈ 40.7 µM)
- MIC ([1]; Morganella morganii, M. morganii 105): 32 µg/mL (≈ 40.7 µM)
- MIC ([1]; Morganella morganii, M. morganii 108): 32 µg/mL (≈ 40.7 µM)
- MIC ([1]; Morganella morganii, M. morganii 453): 8 µg/mL (≈ 10.2 µM)
- MIC ([1]; Morganella morganii, M. morganii 458): 32 µg/mL (≈ 40.7 µM)
- MIC ([1]; Morganella morganii, M. morganii 461): 32 µg/mL (≈ 40.7 µM)
- MIC ([1]; Morganella morganii, M. morganii 462): 32 µg/mL (≈ 40.7 µM)
- MIC ([1]; Morganella morganii, M. morganii 923): 16 µg/mL (≈ 20.4 µM)
- MIC ([1]; Morganella morganii, M. morganii 932): 32 µg/mL (≈ 40.7 µM)
- MIC ([1]; Morganella morganii, M. morganii 935): 32 µg/mL (≈ 40.7 µM)
- MIC ([1]; Morganella morganii, M. morganii 1006): 8 µg/mL (≈ 10.2 µM)
- MIC ([1]; Proteus mirabilis, P. mirabilis 465): 32 µg/mL (≈ 40.7 µM)
- MIC ([1]; Proteus mirabilis, P. mirabilis 466): 32 µg/mL (≈ 40.7 µM)
- MIC ([1]; Proteus mirabilis, P. mirabilis 469): 32 µg/mL (≈ 40.7 µM)
- MIC ([1]; Proteus mirabilis, P. mirabilis 470): 16 µg/mL (≈ 20.4 µM)
- MIC ([1]; Proteus mirabilis, P. mirabilis 471): 8 µg/mL (≈ 10.2 µM)
- MIC ([1]; Proteus mirabilis, P. mirabilis 472): 8 µg/mL (≈ 10.2 µM)
- MIC ([1]; Proteus mirabilis, P. mirabilis 473): 16 µg/mL (≈ 20.4 µM)
- MIC ([1]; Proteus mirabilis, P. mirabilis 477): 32 µg/mL (≈ 40.7 µM)
- MIC ([1]; Proteus mirabilis, P. mirabilis 479): 32 µg/mL (≈ 40.7 µM)
- MIC ([1]; Proteus mirabilis, P. mirabilis 480): 32 µg/mL (≈ 40.7 µM)
- MIC ([1]; Proteus mirabilis, P. mirabilis 489): 32 µg/mL (≈ 40.7 µM)
- MIC ([1]; Proteus mirabilis, P. mirabilis 928): 32 µg/mL (≈ 40.7 µM)
- MIC ([1]; Proteus mirabilis, P. mirabilis 972): 32 µg/mL (≈ 40.7 µM)
- MIC ([1]; Proteus mirabilis, P. mirabilis 983): 16 µg/mL (≈ 20.4 µM)
- MIC ([1]; Proteus mirabilis, P. mirabilis 985): 32 µg/mL (≈ 40.7 µM)
- MIC ([1]; Proteus mirabilis, P. mirabilis 987): 32 µg/mL (≈ 40.7 µM)
- MIC ([1]; Proteus mirabilis, P. mirabilis 988): 8 µg/mL (≈ 10.2 µM)
- MIC ([1]; Proteus mirabilis, P. mirabilis 990): 32 µg/mL (≈ 40.7 µM)
- MIC ([1]; Proteus mirabilis, P. mirabilis 991): 32 µg/mL (≈ 40.7 µM)
- MIC ([1]; Proteus mirabilis, P. mirabilis 993): 16 µg/mL (≈ 20.4 µM)
- MIC ([1]; Proteus mirabilis, P. mirabilis 995): 32 µg/mL (≈ 40.7 µM)
- MIC ([1]; Proteus mirabilis, P. mirabilis 996): 32 µg/mL (≈ 40.7 µM)
- MIC ([1]; Proteus mirabilis, P. mirabilis 997): 32 µg/mL (≈ 40.7 µM)
- MIC ([1]; Proteus mirabilis, P. mirabilis 998): 8 µg/mL (≈ 10.2 µM)
- MIC ([1]; Providencia stuartii, P. stuartii 94): 32 µg/mL (≈ 40.7 µM)
- MIC ([1]; Providencia stuartii, P. stuartii 299): 16 µg/mL (≈ 20.4 µM)
- MIC ([1]; Providencia stuartii, P. stuartii 301): 32 µg/mL (≈ 40.7 µM)
- MIC ([1]; Providencia stuartii, P. stuartii 306): 16 µg/mL (≈ 20.4 µM)
- MIC ([1]; Providencia stuartii, P. stuartii 312): 32 µg/mL (≈ 40.7 µM)
- MIC ([1]; Providencia stuartii, P. stuartii 459): 32 µg/mL (≈ 40.7 µM)
- MIC ([1]; S. odorifera 59): 32 µg/mL (≈ 40.7 µM)
- MIC ([1]; Serratia marcescens, S. marcescens 38): 32 µg/mL (≈ 40.7 µM)
- MIC ([1]; Serratia marcescens, S. marcescens 45): 32 µg/mL (≈ 40.7 µM)
- MIC ([1]; Serratia marcescens, S. marcescens 59): 32 µg/mL (≈ 40.7 µM)
- MIC ([1]; Serratia marcescens, S. marcescens 63): 32 µg/mL (≈ 40.7 µM)
- MIC ([1]; Stenotrophomonas maltophilia, S. maltophilia 1203): 32 µg/mL (≈ 40.7 µM)
- MIC ([1]; Stenotrophomonas maltophilia, S. maltophilia 1208): 32 µg/mL (≈ 40.7 µM)
- MIC ([2]; Staphylococcus epidermidis): 0.06 µg/mL (≈ 0.0763 µM)
- MIC ([2]; strain S. epidermidis 354): 0.06 µg/mL (≈ 0.0763 µM)
